{
  "source": "patent US20110015226A1",
  "about": "“Treatment of Energy Utilization Disease” (SUMMIT CORPORATION PLC, priority 2008, published 2011)",
  "origin": "cited, not measured here",
  "target": "digestive glucosidases",
  "conditions": "Watson et al., 2001; cited from earlier work",
  "data": [
    {"compound": "OC[C@H]1NC[C@H](O)[C@@H](O)[C@@H]1O", "note": "[DNJ, 1-deoxynojirimycin, reference compound]", "values": [
      {"measurement": "Ki values, digestive glucosidases", "result": "low or sub-μM range"}
    ]}
  ]
}
